This passage reports anticancer activity results from US7579491B2, “Process for preparing brevifoliol” (Council of Scientific and Industrial Research, priority 2002, dated 2009).

The assay concerns different cancer cell lines. The assay is described as follows: in vitro testing for anticancer activity. In kind it is cell-based. The protocol: The isolation of brevifoliol from leaves of the plant Taxus wallichiana is also reported in S. K. Chattopadhyay et al Indian J. Chemistry 35B, 175-177(1996) as part of studies on the isolation of anticancer compounds. The process of this disclosure involved extracting the dried and crushed needles of Taxus wallichiana with methanol for 72 hours and the extract was concentrated in vacuo. The concentrate was diluted with water and extracted with hexane and chloroform respectively. Concentration of the chloroform phase under vacuum left a residue which was separated by column chromatography over silica gel. Fraction eluted with chloroform-methanol (98:5) contained brevifoliol which was further purified by re-chromatography over silica gel and eluted with chloroform-methanol (99:2). Fractions containing brevifoliol were combined and concentrated and recrystallized from pet-ether and ethyl acetate mixture to get brevifoliol as needles. […] The detection of anticancer activity in brevifoliol prompted the present investigators to develop an efficient processing technology for isolation of the compound in large quantities from the needles of the plant for further biological testing.

Take `C=C1C2C[C@]3(C(C)(C)O)CC(O)C(C)=C3[C@@H](OC(=O)c3ccccc3)[C@H](OC(C)=O)[C@]2(C)[C@@H](OC(C)=O)C[C@@H]1O` (stereo partly shown) [brevifoliol]: the anticancer activity result was “significant anticancer activity”.
